The IC50 is the concentration that inhibits the measured activity by half.

For one assay, the target named is Factor XIa (Homo sapiens (Human), UniProt P03951). Put plainly: Factor XIa inhibition assay (FLINT) utilizing a fluorophore-quencher pair peptide substrate. It is filed as biochemical. Particulars: 30 min preincubation, kinetic reads over 30 min, 5Fam-KLTRAETV-K5Tamra substrate 15 μM; read-out: FXIa Kin Inh IC50. A digest of the protocol: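 FXIa ([…]) preincubated 30 min with compound (11-point 3-fold dilution, top 100 nM, 2% DMSO), then 15 μM quenched FXI Arg146-based peptide added; Tris pH 7.5, CaCl2, BSA, CHAPS. Fluorescence 485/520 nm read kinetically every 5 min over 30 min at RT; IC50 by 4-parameter fit.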
Sequence of Factor XIa (P03951 388-625): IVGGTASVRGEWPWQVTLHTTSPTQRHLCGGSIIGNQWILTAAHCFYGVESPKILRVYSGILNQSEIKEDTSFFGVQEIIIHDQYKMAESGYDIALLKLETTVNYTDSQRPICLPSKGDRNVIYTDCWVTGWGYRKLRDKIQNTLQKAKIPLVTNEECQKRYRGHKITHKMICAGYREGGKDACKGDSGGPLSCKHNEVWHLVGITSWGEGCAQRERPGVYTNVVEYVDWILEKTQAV
Sequence of Factor XIa (P03951 19-387 partner): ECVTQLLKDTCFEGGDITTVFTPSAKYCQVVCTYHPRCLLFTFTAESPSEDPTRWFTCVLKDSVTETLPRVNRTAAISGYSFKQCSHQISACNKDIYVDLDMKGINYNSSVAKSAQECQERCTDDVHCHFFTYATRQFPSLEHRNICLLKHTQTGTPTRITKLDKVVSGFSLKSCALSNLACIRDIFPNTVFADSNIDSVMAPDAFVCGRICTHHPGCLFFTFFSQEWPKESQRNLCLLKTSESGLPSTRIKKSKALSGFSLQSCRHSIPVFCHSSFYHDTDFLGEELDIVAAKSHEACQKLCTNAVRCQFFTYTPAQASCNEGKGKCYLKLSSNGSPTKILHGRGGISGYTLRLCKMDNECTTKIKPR

The target in the next assay is human plasma kallikrein (Homo sapiens (Human), UniProt P03952). Put plainly: Kallikrein inhibition assay (FLINT) utilizing a quenched AMC peptide substrate. It is filed as biochemical. Particulars: 30 min preincubation, kinetic reads over 30 min, Z-Gly-Pro-Arg-AMC substrate 50 μM; read-out: Kallikrein Kin Inh IC50. In a few lines: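 Enzyme (2 nM final) pre-incubated 30 min at room temperature with compound (11-point, 3-fold, top 1 μM, 2% DMSO), then 50 μM Z-Gly-Pro-Arg-AMC added in Tris pH 7.5 buffer. Kinetic fluorescence 340/440 nm every 5 min over 30 min; IC50 from 4-parameter logistic fit.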
Sequence of human plasma kallikrein (P03952 391-638): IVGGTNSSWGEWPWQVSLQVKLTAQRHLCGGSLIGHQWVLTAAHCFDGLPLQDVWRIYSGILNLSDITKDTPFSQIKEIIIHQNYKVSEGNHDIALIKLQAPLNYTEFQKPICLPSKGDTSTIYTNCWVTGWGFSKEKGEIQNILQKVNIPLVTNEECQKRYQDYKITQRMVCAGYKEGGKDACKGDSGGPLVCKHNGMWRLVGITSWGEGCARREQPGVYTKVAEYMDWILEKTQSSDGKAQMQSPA
Sequence of human plasma kallikrein (P03952 20-390 partner): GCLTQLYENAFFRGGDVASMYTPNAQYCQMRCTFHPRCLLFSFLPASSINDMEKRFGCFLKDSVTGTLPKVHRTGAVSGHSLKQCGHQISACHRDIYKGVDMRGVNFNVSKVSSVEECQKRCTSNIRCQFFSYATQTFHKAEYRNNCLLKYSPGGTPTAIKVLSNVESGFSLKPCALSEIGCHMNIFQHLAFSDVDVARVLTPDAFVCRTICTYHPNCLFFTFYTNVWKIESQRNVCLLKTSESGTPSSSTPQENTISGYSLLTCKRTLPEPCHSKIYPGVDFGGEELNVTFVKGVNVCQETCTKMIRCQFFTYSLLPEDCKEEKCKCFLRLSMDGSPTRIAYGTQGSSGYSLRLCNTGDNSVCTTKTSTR

The structures appear in SMILES notation.

With `Nc1cc(-c2cnc([C@@H]3CC[C@@H]4CC(c5c(-n6cnnn6)ccc(Cl)c5F)=CC(=O)N43)[nH]2)ccn1` [Example 389, (3S,8aR)-3-(5-(2-aminopyridin-4-yl)-1H-imidazol-2-yl)-7-(3-chloro-2-fluoro-6-(1H-tetrazol-1-yl)phenyl)-2,3,8,8a-tetrahydroindolizin-5(1H)-one], the IC50 on Factor XIa amounted to 1.4 nM; on human plasma kallikrein, 12.4 nM.

Consider `CCNc1nccc(-c2cnc([C@@H]3CC[C@@H]4CC(c5c(-n6cnnn6)ccc(Cl)c5F)=CC(=O)N43)[nH]2)c1F` [Example 390, (3S,8aR)-7-(3-chloro-2-fluoro-6-(1H-tetrazol-1-yl)phenyl)-3-(5-(2-(ethylamino)-3-fluoropyridin-4-yl)-1H-imidazol-2-yl)-2,3,8,8a-tetrahydroindolizin-5(1H)-one], for which the IC50 on Factor XIa turned out to be 0.4 nM; on human plasma kallikrein it was 1.3 nM.

On to `CC12CC[C@@H](c3ncc(-c4ccnc(CO)c4F)[nH]3)N1C(=O)C=C(c1c(-n3cnnn3)ccc(Cl)c1F)C2` (stereo partly drawn) [Example 391, (3S)-7-(3-chloro-2-fluoro-6-(1H-tetrazol-1-yl)phenyl)-3-(5-(3-fluoro-2-(hydroxymethyl)pyridin-4-yl)-1H-imidazol-2-yl)-8a-methyl-2,3,8,8a-tetrahydroindolizin-5(1H)-one], for which the results for the IC50 at Factor XIa and on human plasma kallikrein were 33.3 nM and 35.4 nM, respectively.

These data come from patent US20230295157A1, “3-(1H-IMIDAZOL-2-YL)-2,3,8,8A-TETRAHYDROINDOLIZIN-5(1H)-ONE DERIVATIVES USEFUL AS FACTOR XIA INHIBITORS” (JANSSEN PHARMACEUTICA NV, priority 2020, published 2023).
